Data: PubChem BioAssay (NCI)
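Following 48 hours of exposure in 96-well plates, responses at five concentrations were used to interpolate endpoints linearly. TGI: concentration producing complete growth inhibition.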

Columns and labels:
Assay in all cases: NCI tumour cell line growth inhibition, 48 h
[1] = system: A498 renal
[2] = system: HT29 colon
[3] = system: UACC-257 melanoma
[4] = system: OVCAR-3 ovarian
[5] = system: OVCAR-4 ovarian
[6] = system: TK-10 renal
[7] = system: SF-295 CNS
[8] = system: NCI-H460 lung
[9] = system: HCT-116 colon
[10] = system: CCRF-CEM leukemia
[11] = system: NCI-H522 lung
[12] = system: U251 CNS
[13] = system: SF-268 CNS
[14] = system: IGROV1 ovarian
[15] = system: HCT-15 colon
[16] = system: SK-MEL-28 melanoma
[17] = system: HS 578T breast
[18] = system: OVCAR-5 ovarian
[19] = system: HOP-62 NSCLC
[20] = system: PC-3 prostate
[21] = system: NCI/ADR-RES ovarian
[22] = system: SN12C renal
[23] = system: SK-MEL-2 melanoma
[24] = system: HL-60(TB) leukemia
[25] = system: T-47D breast
[26] = system: EKVX NSCLC
[27] = system: MALME-3M melanoma
[28] = system: OVCAR-8 ovarian
[29] = system: DU-145 prostate
[30] = system: MDA-MB-231 breast
[31] = system: SNB-19 CNS
[32] = system: ACHN renal
[33] = system: MDA-MB-435
[34] = system: CAKI-1 renal
[35] = system: MDA-N
[36] = system: UACC-62 melanoma
[37] = system: SK-MEL-5 melanoma
[38] = system: KM12 colon
[39] = system: M14 melanoma
[40] = system: SR leukemia
[41] = system: NCI-H23 lung
[42] = system: A549 NSCLC
[43] = system: LOX IMVI melanoma
[44] = system: MOLT-4 leukemia
[45] = system: 786-0 renal
[46] = system: NCI-H226 lung
[47] = system: RXF 393 renal
[48] = system: BT-549 breast
[49] = system: HOP-92 NSCLC
[50] = system: K-562 leukemia
[51] = system: SW-620 colon
[52] = system: UO-31 renal
[53] = system: HCC-2998 colon
[54] = system: SK-OV-3 ovarian
[55] = system: RPMI-8226 leukemia
[56] = system: COLO 205 colon
[57] = system: SNB-75 CNS
[58] = system: MCF7 breast
[59] = system: SF-539 CNS

For COc1ccc(CCCC(=O)O)c(C)c1, the TGI [1] was 52.6 µM, the TGI [2] was > 100 µM and the TGI [3] was > 100 µM. For the same molecule, the TGI [4] was 97.5 µM, the TGI [5] was > 100 µM and the TGI [6] was > 100 µM. For the same molecule, the TGI [7] was > 100 µM, the TGI [8] was > 100 µM and the TGI [9] was > 100 µM. The TGI [10] was > 100 µM, the TGI [11] was > 100 µM and the TGI [12] was 60.8 µM. The TGI [13] was > 100 µM, the TGI [14] was > 100 µM and the TGI [15] was > 100 µM. The TGI [16] was > 100 µM, the TGI [17] was > 100 µM and the TGI [18] was > 100 µM. The TGI [19] was 75 µM, the TGI [20] was > 100 µM and the TGI [21] was > 100 µM. For the same molecule, the TGI [22] was > 100 µM, the TGI [23] was > 100 µM and the TGI [24] was > 100 µM. For the same molecule, the TGI [25] was > 100 µM, the TGI [26] was > 100 µM and the TGI [27] was > 100 µM. The TGI [28] was > 100 µM, the TGI [29] was 56.6 µM and the TGI [30] was > 100 µM. The TGI [31] was > 100 µM, the TGI [32] was > 100 µM and the TGI [33] was > 100 µM. For the same molecule, the TGI [34] was 51.1 µM, the TGI [35] was > 100 µM and the TGI [36] was > 100 µM. The TGI [37] was > 100 µM, the TGI [38] was > 100 µM and the TGI [39] was > 100 µM. For the same molecule, the TGI [40] was > 100 µM, the TGI [41] was > 100 µM and the TGI [42] was > 100 µM. For the same molecule, the TGI [43] was > 100 µM, the TGI [44] was > 100 µM and the TGI [45] was > 100 µM. For the same molecule, the TGI [46] was 91.1 µM, the TGI [47] was > 100 µM and the TGI [48] was > 100 µM. The TGI [49] was 90.8 µM, the TGI [50] was > 100 µM and the TGI [51] was > 100 µM. The TGI [52] was > 100 µM.
With CC(=O)c1c(-c2ccccc2)c(-c2ccc(OCCN(C)C)cc2)n2ccccc12 the TGI [1] was 39.3 µM, the TGI [2] was 13.6 µM and the TGI [53] was 27.7 µM. For the same molecule, the TGI [3] was 28.9 µM, the TGI [4] was 32.8 µM and the TGI [5] was > 100 µM. The TGI [6] was 32.1 µM, the TGI [7] was 30.9 µM and the TGI [8] was 26 µM. For the same molecule, the TGI [9] was 26 µM, the TGI [10] was 61.1 µM and the TGI [54] was 38.2 µM. It also gave a TGI [11] of 27.9 µM, a TGI [12] of 31.3 µM and a TGI [13] of 33.1 µM. For the same molecule, the TGI [14] was 33.3 µM, the TGI [15] was 22.7 µM and the TGI [16] was 28.6 µM. The TGI [17] was 42.2 µM, the TGI [18] was > 100 µM and the TGI [20] was 35.5 µM. For the same molecule, the TGI [55] was 60.2 µM, the TGI [21] was 33.9 µM and the TGI [22] was 29.4 µM. For the same molecule, the TGI [23] was 33.3 µM, the TGI [56] was 27 µM and the TGI [57] was 27.9 µM. For the same molecule, the TGI [24] was 36.3 µM, the TGI [25] was 37.8 µM and the TGI [26] was 43.8 µM. It also gave a TGI [27] of 24.4 µM, a TGI [28] of 31 µM and a TGI [29] of 31.8 µM. It also gave a TGI [30] of 31 µM, a TGI [31] of 40.4 µM and a TGI [32] of 29.2 µM. It also gave a TGI [33] of 35.3 µM, a TGI [34] of 37.1 µM and a TGI [35] of 29.2 µM. It also gave a TGI [36] of 30.7 µM, a TGI [37] of 24.1 µM and a TGI [38] of 26.5 µM. For the same molecule, the TGI [39] was 30.8 µM, the TGI [58] was 32.3 µM and the TGI [41] was 36.7 µM. The TGI [42] was 50.7 µM, the TGI [43] was 29.1 µM and the TGI [44] was 48 µM. It also gave a TGI [45] of 32.2 µM, a TGI [46] of 38.3 µM and a TGI [48] of 30.3 µM. The TGI [59] was 27.1 µM, the TGI [49] was 23.1 µM and the TGI [50] was > 100 µM. For the same molecule, the TGI [51] was 32 µM and the TGI [52] was 32.1 µM.
In the case of COc1ccccc1N=N/C(=N/NC(=O)c1ccc(C)cc1)c1ccc(N(CCC#N)CCC#N)cc1OC, the TGI [1] is reported as 55.8 µM, the TGI [2] is reported as 85.4 µM and the TGI [53] is reported as > 100 µM. The TGI [3] was > 100 µM, the TGI [4] was > 100 µM and the TGI [5] was > 100 µM. The TGI [6] was > 100 µM, the TGI [7] was > 100 µM and the TGI [8] was > 100 µM. For the same molecule, the TGI [9] was 59.9 µM, the TGI [10] was 40.9 µM and the TGI [54] was > 100 µM. For the same molecule, the TGI [11] was 79 µM, the TGI [12] was > 100 µM and the TGI [13] was 77.8 µM. For the same molecule, the TGI [14] was > 100 µM, the TGI [15] was > 100 µM and the TGI [16] was > 100 µM. The TGI [17] was > 100 µM, the TGI [18] was > 100 µM and the TGI [19] was > 100 µM. For the same molecule, the TGI [20] was 71.2 µM, the TGI [55] was 33.5 µM and the TGI [21] was > 100 µM. The TGI [22] was 72.4 µM, the TGI [23] was 39.5 µM and the TGI [56] was 31.1 µM. For the same molecule, the TGI [24] was 26.5 µM, the TGI [25] was 96 µM and the TGI [26] was 69.2 µM. The TGI [27] was 81.9 µM, the TGI [28] was > 100 µM and the TGI [29] was > 100 µM. For the same molecule, the TGI [30] was 79.4 µM, the TGI [31] was > 100 µM and the TGI [32] was 55.9 µM. For the same molecule, the TGI [33] was > 100 µM, the TGI [34] was > 100 µM and the TGI [35] was 53.5 µM. For the same molecule, the TGI [36] was > 100 µM, the TGI [37] was > 100 µM and the TGI [38] was 84.4 µM. The TGI [39] was > 100 µM, the TGI [58] was 63.1 µM and the TGI [41] was > 100 µM. The TGI [42] was > 100 µM, the TGI [43] was > 100 µM and the TGI [44] was 49.6 µM. The TGI [45] was > 100 µM, the TGI [46] was > 100 µM and the TGI [47] was > 100 µM. For the same molecule, the TGI [48] was 97.4 µM, the TGI [49] was 95.1 µM and the TGI [50] was > 100 µM. For the same molecule, the TGI [51] was > 100 µM and the TGI [52] was > 100 µM.
For CCN(CC)CCSc1nc2c(c(=N)n1-c1ccccc1)c(=S)n(-c1ccccc1)c(=S)n2-c1ccccc1, the TGI [1] was 22.2 µM, the TGI [2] was 3.37 µM and the TGI [53] was 3.15 µM. For the same molecule, the TGI [3] was 3.15 µM, the TGI [4] was 3.07 µM and the TGI [5] was 7.87 µM. It also gave a TGI [6] of 3.17 µM, a TGI [7] of 30.1 µM and a TGI [8] of 3.86 µM. It also gave a TGI [9] of 4.69 µM, a TGI [10] of 0.446 µM and a TGI [54] of 15.5 µM. It also gave a TGI [12] of 6.4 µM, a TGI [13] of 3.9 µM and a TGI [14] of 3.24 µM. For the same molecule, the TGI [15] was 4.35 µM, the TGI [16] was 16.5 µM and the TGI [17] was > 90.9 µM. The TGI [18] was 29 µM, the TGI [19] was 8.32 µM and the TGI [20] was 3.32 µM. It also gave a TGI [55] of 1.02 µM, a TGI [21] of 52.5 µM and a TGI [22] of 3.29 µM. The TGI [23] was 20.4 µM, the TGI [56] was 3.51 µM and the TGI [57] was 5.52 µM. For the same molecule, the TGI [24] was 1.29 µM, the TGI [25] was 9.03 µM and the TGI [26] was 7.31 µM. For the same molecule, the TGI [27] was 3.18 µM, the TGI [28] was 3.54 µM and the TGI [29] was 3.05 µM. It also gave a TGI [30] of 3.73 µM, a TGI [31] of 40.6 µM and a TGI [32] of 3.16 µM. The TGI [33] was 3.77 µM, the TGI [34] was 2.94 µM and the TGI [35] was 6.55 µM. For the same molecule, the TGI [36] was 3.16 µM, the TGI [37] was 11.4 µM and the TGI [38] was 12.8 µM. For the same molecule, the TGI [39] was 5 µM, the TGI [40] was 0.936 µM and the TGI [41] was 10.8 µM. For the same molecule, the TGI [42] was 4.77 µM, the TGI [43] was 3.34 µM and the TGI [44] was 2.33 µM. The TGI [45] was 1.55 µM, the TGI [46] was 50.4 µM and the TGI [47] was 2.78 µM. The TGI [48] was 5.98 µM, the TGI [59] was 9.57 µM and the TGI [49] was 2.88 µM. The TGI [50] was 2.5 µM and the TGI [51] was > 21.4 µM.
